Results: patent publication US8426604B2 (Janssen Pharmaceutica NV, priority 2010, dated 2013)

The compounds below were run against T1, ERR1 (also known as ERR-α or ERR-1) (Homo sapiens, UniProt P11474) (assay: TR-FRET assay (disruption of co-activator peptide binding)). Conditions: 6His-tagged ERR1LBD, GST-hSRC2 co-activator peptide; average of 3 independent experiments.
T1 sequence (P11474 193-421 limits assumed): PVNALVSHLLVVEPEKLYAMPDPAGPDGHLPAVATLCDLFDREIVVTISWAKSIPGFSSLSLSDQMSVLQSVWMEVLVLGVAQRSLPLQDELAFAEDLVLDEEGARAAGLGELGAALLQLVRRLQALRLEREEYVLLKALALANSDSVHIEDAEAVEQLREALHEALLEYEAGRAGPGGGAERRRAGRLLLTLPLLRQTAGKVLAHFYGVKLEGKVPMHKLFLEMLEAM
Format: biochemical
Procedure: Time-Resolved Fluorescence Resonance Energy Transfer (TR-FRET) experiments were performed to examine the functional response of ERR1 (also known as ERR-α or ERR-1) ligands. The TR-FRET assay described herein relied on the conformation of ERR1 for binding to a co-activator peptide: when a test compound binds to ERR1 and alters its conformation, it can disrupt the binding of the co-activator peptide. The components of this homogeneous secondary assay included: the ^6His-tagged-ERR1LBD, a GST-labeled-hSRC2 co-activator polypeptide and a fluorescent donor/acceptor pair from CIS bio international htrf/bioassays (Bedford, Mass.) using both an α-GST Europium Cryptate (Eu) label and an α^6His-XL665 (allophycocyanin) fluorophore.
For TR-FRET measurements, the reaction was buffered in 25 mM Tris pH 8, 2.5 mM Hepes, 20 mM KCl, 1 mM DTT, and 0.05 mg/mL BSA (-lipids). The final concentrations of reagents were 6 nM of ERR1LBD, 6 nM GST-SRC-2 peptide, 30 nM Eu cryptate, and 7.5 nM XL665. Reactions were allowed to reach equilibrium at 25° C. for 4-18 hours before collecting data on the Analyst from LJL Biosystems (Molecular Devices Sunnyvale, Calif.). As a time-resolved method, the samples were excited at […] and emission was collected for 1 ms at both 615 and 665 nm with delays of 400 and 75 μs, respectively. Dose response curves were fitted using a hyperbolic equation and the data reported is the average of 3 independent experiments.

`COC[C@@H]1C[C@H](N(C)C2=NC(=O)/C(=C/c3ccc4c(cnn4Cc4ccc(Cl)cc4C(F)(F)F)c3)S2)CN1` (stereo in doubt) [Compound 41, 5-[1-(4-Chloro-2-trifluoromethyl-benzyl)-1H-indazol-5-ylmethylene]-2-[(5-methoxymethyl-pyrrolidin-3-yl)-methyl-amino]-thiazol-4-one] and `CN(C1=NC(=O)/C(=C/c2ccc3c(cnn3Cc3ccc(Cl)cc3C(F)(F)F)c2)S1)[C@@H]1CN[C@H](CO)C1` (stereo in doubt) [Compound 42, 5-[1-(4-Chloro-2-trifluoromethyl-benzyl)-1H-indazol-5-ylmethylene]-2-[(5-hydroxymethyl-pyrrolidin-3-yl)-methyl-amino]-thiazol-4-one] are the same in EC50: 24 nM for the first, 24 nM for the second.

Compared with `CN(C)C1=NC(=O)/C(=C/c2ccc3c(cnn3Cc3ccc(C(F)(F)F)cc3C(F)(F)F)c2)S1` [Compound 1, 5-[1-(2,4-Bis-trifluoromethyl-benzyl)-1H-indazol-5-ylmethylene]-2-dimethylamino-thiazol-4-one], `CN(C)CCN(C)C1=NC(=O)/C(=C/c2ccc3c(cnn3Cc3ccc(C(F)(F)F)cc3C(F)(F)F)c2)S1` [Compound 2, 5-[1-(2,4-Bis-trifluoromethyl-benzyl)-1H-indazol-5-ylmethylene]-2-[(2-dimethylamino-ethyl)-methyl-amino]-thiazol-4-one] is 1.7-fold lower in EC50: 12 nM for the first, 7 nM for the second.

Compared with `N#Cc1ccc(Cn2ncc3cc(/C=C4\SC(N(CCO)CCO)=NC4=O)ccc32)c(C(F)(F)F)c1` [Compound 3, 4-(5-{2-[Bis-(2-hydroxy-ethyl)-amino]-4-oxo-4H-thiazol-5-ylidenemethyl}-indazol-1-ylmethyl)-3-trifluoromethyl-benzonitrile], `O=C1N=C(N(CCO)CCO)S/C1=C\c1ccc2c(cnn2Cc2ccc(Cl)cc2C(F)(F)F)c1` [Compound 4, 2-[Bis-(2-hydroxy-ethyl)-amino]-5-[1-(4-chloro-2-trifluoromethyl-benzyl)-1H-indazol-5-ylmethylene]-thiazol-4-one] is 12-fold lower in EC50: 120 nM for the first, 10 nM for the second. The second is the more potent here.

`CN(C)CCN(C)C1=NC(=O)/C(=C/c2ccc3c(cnn3Cc3ccc(Cl)cc3C(F)(F)F)c2)S1` [Compound 5, 5-[1-(4-Chloro-2-trifluoromethyl-benzyl)-1H-indazol-5-ylmethylene]-2-[(2-dimethylamino-ethyl)-methyl-amino]-thiazol-4-one] and `CN(CC(O)CO)C1=NC(=O)/C(=C/c2ccc3c(cnn3Cc3ccc(Cl)cc3C(F)(F)F)c2)S1` (centres unmarked) [Compound 6, 5-[1-(4-Chloro-2-trifluoromethyl-benzyl)-1H-indazol-5-ylmethylene]-2-[(2,3-dihydroxy-propyl)-methyl-amino]-thiazol-4-one] are within 1.5-fold of each other in EC50: 5.1 nM for the first, 3.6 nM for the second.

Compared with `CN(C)CCN(C)C1=NC(=O)/C(=C/c2ccc3c(cnn3Cc3ccc(S(C)(=O)=O)cc3Cl)c2)S1` [Compound 7, 5-[1-(2-Chloro-4-methanesulfonyl-benzyl)-1H-indazol-5-ylmethylene]-2-[(2-dimethylamino-ethyl)-methyl-amino]-thiazol-4-one], `CN(CC(O)CO)C1=NC(=O)/C(=C/c2ccc3c(cnn3Cc3ccc(S(C)(=O)=O)cc3C(F)(F)F)c2)S1` (centres unmarked) [Compound 8, 2-[(2,3-Dihydroxy-propyl)-methyl-amino]-5-[1-(4-methanesulfonyl-2-trifluoromethyl-benzyl)-1H-indazol-5-ylmethylene]-thiazol-4-one] is 1.6-fold lower in EC50: 830 nM for the first, 520 nM for the second. The second is the more potent here.

`COCCN(CCOC)C1=NC(=O)/C(=C/c2ccc3c(cnn3Cc3ccc(OC)cc3C(F)(F)F)c2)S1` [Compound 9, 2-[Bis-(2-methoxy-ethyl)-amino]-5-[1-(4-methoxy-2-trifluoromethyl-benzyl)-1H-indazol-5-ylmethylene]-thiazol-4-one] and `COCCN(CCOC)C1=NC(=O)/C(=C/c2ccc3c(cnn3Cc3ccc(Cl)cc3C(F)(F)F)c2)S1` [Compound 14, 2-[Bis-(2-methoxy-ethyl)-amino]-5-[1-(4-chloro-2-trifluoromethyl-benzyl)-1H-indazol-5-ylmethylene]-thiazol-4-one] are within 1.5-fold of each other in EC50: 4.1 nM for the first, 3.3 nM for the second.

Compared with `COCCN(CCOC)C1=NC(=O)/C(=C/c2ccc3c(cnn3Cc3ncc(C(F)(F)F)cc3Cl)c2)S1` [Compound 10, 2-[Bis-(2-methoxy-ethyl)-amino]-5-[1-(3-chloro-5-trifluoromethyl-pyridin-2-ylmethyl)-1H-indazol-5-ylmethylene]-thiazol-4-one], `O=C1N=C(N(CCO)CCO)S/C1=C\c1ccc2c(cnn2Cc2ncc(C(F)(F)F)cc2Cl)c1` [Compound 12, 2-[Bis-(2-hydroxy-ethyl)-amino]-5-[1-(3-chloro-5-trifluoromethyl-pyridin-2-ylmethyl)-1H-indazol-5-ylmethylene]-thiazol-4-one] is 4.9-fold higher in EC50: 800 nM for the first, 3900 nM for the second. The first is the more potent here.

First: CN(CC(O)CO)C1=NC(=O)/C(=C/c2ccc3c(cnn3Cc3ncc(C(F)(F)F)cc3Cl)c2)S1 (centres unmarked) [Compound 11, 5-[1-(3-Chloro-5-trifluoromethyl-pyridin-2-ylmethyl)-1H-indazol-5-ylmethylene]-2-[(2,3-dihydroxy-propyl)-methyl-amino]-thiazol-4-one]
Second: COc1ccc(Cn2ncc3cc(/C=C4\SC(N(C)CC(O)CO)=NC4=O)ccc32)c(C(F)(F)F)c1 (centres unmarked) [Compound 13, 2-[(2,3-Dihydroxy-propyl)-methyl-amino]-5-[1-(4-methoxy-2-trifluoromethyl-benzyl)-1H-indazol-5-ylmethylene]-thiazol-4-one]
The EC50 of the first is 440-fold higher: 1600 nM for the first, 3.6 nM for the second.

First: CN(C1=NC(=O)/C(=C/c2ccc3c(cnn3Cc3ccc(C(F)(F)F)cc3C(F)(F)F)c2)S1)C1CCNCC1 [Compound 17, 5-[1-(2,4-Bis-trifluoromethyl-benzyl)-1H-indazol-5-ylmethylene]-2-(methyl-piperidin-4-yl-amino)-thiazol-4-one]
Second: CN(CCN1CCOCC1)C1=NC(=O)/C(=C/c2ccc3c(cnn3Cc3ccc(C(F)(F)F)cc3C(F)(F)F)c2)S1 [Compound 27, 5-[1-(2,4-Bis-trifluoromethyl-benzyl)-1H-indazol-5-ylmethylene]-2-[methyl-(2-morpholin-4-yl-ethyl)-amino]-thiazol-4-one]
The EC50 of the first is 1.8-fold higher: 37 nM for the first, 21 nM for the second. The second is the more potent here.

Going from `CN(CCN1CCCC1)C1=NC(=O)/C(=C/c2ccc3c(cnn3Cc3ccc(Cl)cc3C(F)(F)F)c2)S1` [Compound 18, 5-[1-(4-Chloro-2-trifluoromethyl-benzyl)-1H-indazol-5-ylmethylene]-2-[methyl-(2-pyrrolidin-1-yl-ethyl)amino]-thiazol-4-one] to `CN(CCN1CCOCC1)C1=NC(=O)/C(=C/c2ccc3c(cnn3Cc3ccc(Cl)cc3C(F)(F)F)c2)S1` [Compound 26, 5-[1-(4-Chloro-2-trifluoromethyl-benzyl)-1H-indazol-5-ylmethylene]-2-[methyl-(2-morpholin-4-yl-ethyl)-amino]-thiazol-4-one], the EC50 rises from 13 nM to 21 nM (1.6-fold).

`CN1CCC(N(C)C2=NC(=O)/C(=C/c3ccc4c(cnn4Cc4ccc(Cl)cc4C(F)(F)F)c3)S2)CC1` [Compound 19, 5-[1-(4-Chloro-2-trifluoromethyl-benzyl)-1H-indazol-5-ylmethylene]-2-[methyl-(1-methyl-piperidin-4-yl)-amino]-thiazol-4-one] and `CN(C1=NC(=O)/C(=C/c2ccc3c(cnn3Cc3ccc(Cl)cc3C(F)(F)F)c2)S1)C1CCN(CCF)CC1` [Compound 25, 5-[1-(4-Chloro-2-trifluoromethyl-benzyl)-1H-indazol-5-ylmethylene]-2-{[1-(2-fluoro-ethyl)-piperidin-4-yl]-methyl-amino}-thiazol-4-one] are within 1.5-fold of each other in EC50: 8.1 nM for the first, 11 nM for the second.

Going from `CON(C)C1=NC(=O)/C(=C/c2ccc3c(cnn3Cc3ccc(Cl)cc3C(F)(F)F)c2)S1` [Compound 21, 5-[1-(4-Chloro-2-trifluoromethyl-benzyl)-1H-indazol-5-ylmethylene]-2-(methoxy-methyl-amino)-thiazol-4-one] to `CN(CC(=O)O)C1=NC(=O)/C(=C/c2ccc3c(cnn3Cc3ccc(Cl)cc3C(F)(F)F)c2)S1` [Compound 22, ({5-[1-(4-Chloro-2-trifluoromethyl-benzyl)-1H-indazol-5-ylmethylene]-4-oxo-4,5-dihydro-thiazol-2-yl}-methyl-amino)-acetic acid], the EC50 falls from 24 nM to 13 nM (1.8-fold).

`CN1CCN(CCN(C)C2=NC(=O)/C(=C/c3ccc4c(cnn4Cc4ccc(Cl)cc4C(F)(F)F)c3)S2)CC1` [Compound 23, 5-[1-(4-Chloro-2-trifluoromethyl-benzyl)-1H-indazol-5-ylmethylene]-2-{methyl-[2-(4-methyl-piperazin-1-yl)-ethyl]-amino}-thiazol-4-one] and `COCCN1CCC(N(C)C2=NC(=O)/C(=C/c3ccc4c(cnn4Cc4ccc(Cl)cc4C(F)(F)F)c3)S2)CC1` [Compound 24, 5-[1-(4-Chloro-2-trifluoromethyl-benzyl)-1H-indazol-5-ylmethylene]-2-{[1-(2-methoxy-ethyl)-piperidin-4-yl]-methyl-amino}-thiazol-4-one] are the same in EC50: 9 nM for the first, 9 nM for the second.
